Test results as given in patent US20220395500A1, “SMALL MOLECULE ACTIVATORS OF INTERFERON REGULATORY FACTOR 3 AND METHODS OF USE THEREOF” (Neuralexo, Inc., priority 2020, published 2022).

What was measured:
[1] = THP1-Dual cytotoxicity (Cell Titer Glo, ATP); type: cell-based, human; conditions: human, THP1-Dual cells, read-out: Thp1 cytotox CC50
Description: FIG. 9C is a CC50 (50% cytotoxic concentration) graph of AV-C dependent IRF activation in THP1-Dual cells, determined with an 8-point dose response experiment. Cell viability was monitored based on quantitation of ATP present, as an indicator of metabolically active cells, where luminescence is proportional to the amount of ATP present, using Cell-Titer Glo (Promega).
The OTRADI Small Molecule Library of approximately 246,000 diverse compounds (see below for description) was screened using the THP1-Dual based HTS platform described above. All transfer steps in the screen are fully automated, thus reducing variability. Primary screening included a single data point or dose for each molecule. After data normalization was applied for each assay run, “hit” selection was performed on the plates that pass the quality control (QC) criterion. Hits were defined as samples having values above the activity cutoff determined based on noise level of the assay to reduce false positive rates. In the pilot study discussed above this activity value was >3σ above the ISRE mean with the added criteria of NFκB activation being lower than […] from the mean to identify IRF selective compounds. The ratio of ISRE:NFκB activity was also calculated as a selectivity index for prioritizing hit selection. Primary hits underwent secondary screening to determine the 50% effective concentration (EC50) and 50% cytotoxic concentration (CC50) of these agents using an 8-point dose-response curve in the human THP1-Dual cells. Cytotoxicity was measured in the plate using Cell Titer Glo (Promega). Identified candidate compounds were further screened (orthogonal screen) for cross species activity in the validated mouse J774-Dual assay using an 8-point dose-response format to determine EC50 and CC50 values as well as ISRE:NFκB ratios. A general process flow for the experimental design laid out above is depicted at FIG. 12.

J774-Dual cytotoxicity = type: cell-based, mouse; conditions: mouse, J774-Dual cells, read-out: J774 cytotox CC50
Method: The OTRADI Small Molecule Library of approximately 246,000 diverse compounds (see below for description) was screened using the THP1-Dual based HTS platform described above. All transfer steps in the screen are fully automated, thus reducing variability. Primary screening included a single data point or dose for each molecule. After data normalization was applied for each assay run, “hit” selection was performed on the plates that pass the quality control (QC) criterion. Hits were defined as samples having values above the activity cutoff determined based on noise level of the assay to reduce false positive rates. […] The ratio of ISRE:NFκB activity was also calculated as a selectivity index for prioritizing hit selection. Primary hits underwent secondary screening to determine the 50% effective concentration (EC50) and 50% cytotoxic concentration (CC50) of these agents using an 8-point dose-response curve in the human THP1-Dual cells. Cytotoxicity was measured in the plate using Cell Titer Glo (Promega). Identified candidate compounds were further screened (orthogonal screen) for cross species activity in the validated mouse J774-Dual assay using an 8-point dose-response format to determine EC50 and CC50 values as well as ISRE:NFκB ratios. A general process flow for the experimental design laid out above is depicted at FIG. 12.

Row | SMILES | CC50 ([1]; Human Reporter Cell Line THP1) [µM] | CC50 (J774-Dual cytotoxicity; Mouse Reporter Cell Line J774) [µM] | CC50 ([1]; Human Reporter Cell Line) [µM] | CC50 (J774-Dual cytotoxicity; Mouse Reporter Cell Line) [µM]
1 | O=c1cc(NC[C@H](O)[C@H](O)[C@H](O)CO)[nH]c(=O)[nH]1 [ND-100] | > 25 | > 25 | – | –
2 | O=C(Nc1ccc(N2CCN(C(=O)c3cccnc3)CC2)cc1)c1ccc(OCc2ccccc2)cc1 [NA-36] | – | – | > 25 | > 25
3 | Cc1cc2nc(-c3ccc(C)c(NC(=O)c4ccc(C(F)(F)F)c([N+](=O)[O-])c4)c3)oc2cc1C [ND-75] | > 25 | > 25 | – | –
4 | O=C(Nc1ccc(N2CCN(C(=O)c3ccc(Cl)cc3)CC2)cc1)c1ccc(OCc2ccccc2)cc1 [NA-45] | – | – | 10.7 | > 25
5 | Cc1ccc(-c2nc3cc(Cl)ccc3o2)cc1NC(=O)/C=C/c1cccc([N+](=O)[O-])c1 [ND-99] | > 25 | > 25 | – | –
6 | Cc1ccc(-c2nc3cc(O)ccc3o2)cc1[N+](=O)[O-] [ND-85] | > 25 | > 25 | – | –
7 | O=C(Nc1ccc(N2CCN(C(=O)c3cccs3)CC2)cc1)c1cccc(Oc2ccccc2)c1 [NA-68] | – | – | > 10 | > 10
8 | CCOc1ccc(C(=O)Nc2ccc(N3CCN(C(=O)c4cccs4)CC3)cc2)cc1[N+](=O)[O-] [NA-65] | – | – | > 10 | > 10
9 | O=C(Nc1ccc(N2CCN(C(=O)c3cccs3)CC2)cc1)c1ccc(N2CCCCC2)c([N+](=O)[O-])c1 [NA-70] | – | – | > 10 | > 10
10 | CC(C)CC(=O)c1c(C(C)C)nn2ccccc12 [ND-97] | > 25 | > 25 | – | –
11 | ClCCCOc1ccc(-c2nc3ccc(OCCCCl)cc3o2)cc1 [ND-73] | > 25 | > 25 | – | –
12 | COc1ccc(C(=O)Nc2nc(-c3cc4ccccc4oc3=O)cs2)cc1[N+](=O)[O-] [ND-29] | > 25 | > 25 | – | –
13 | Cc1ccc(-c2nc3cc(C(C)C)ccc3o2)cc1[N+](=O)[O-] [ND-57] | > 25 | > 25 | – | –
14 | O=C(c1cccs1)N1CCN(c2ccc(NS(=O)(=O)c3ccc(-c4ccccc4)cc3)cc2)CC1 [NA-69] | – | – | > 10 | > 10
15 | O=C(Nc1ccc(N2CCN(C(=O)c3cccs3)CC2)cc1)c1ccc(Oc2ccccc2)cc1 [NA-26] | – | – | > 25 | > 25
16 | Cc1cc2nc(-c3ccc(C)c(N)c3)oc2cc1C [ND-59] | > 25 | > 25 | – | –
17 | O=C(Nc1ccc(N2CCN(C(=O)c3cccs3)CC2)c(Cl)c1)c1ccc(OCc2ccccc2)cc1 [NA-73] | – | – | > 10 | > 10
18 | O=C(Nc1ccc(N2CCN(C(=O)c3cccs3)CC2)c(Cl)c1)c1ccc2c(c1)OCCO2 [NA-29] | – | – | 65 | 45.8
19 | CC(=O)N1CCN(c2ccc(NC(=O)c3ccc(OCc4ccccc4)cc3)cc2)CC1 [NA-2] | – | – | > 25 | > 25
20 | O=C(c1ccco1)N1CCN(c2ccccc2)CC1 [NA-5] | – | – | > 25 | > 25
21 | O=C(Nc1ccc(N2CCN(C(=O)c3ccco3)CC2)cc1)c1ccccc1F [NA-3] | – | – | > 25 | > 25
22 | O=C(Nc1ccc(N2CCN(C(=O)c3cccs3)CC2)cc1)c1ccc2c(c1)OCO2 [NA-12] | – | – | > 25 | > 25
23 | CCOc1ccc(C(=O)Nc2ccc(N3CCN(C(=O)c4cccs4)CC3)c(Cl)c2)cc1Br [NA-27] | – | – | > 25 | > 25
24 | O=C(Nc1ccc(N2CCN(C(=O)c3cccs3)CC2)cc1)c1ccccc1Br [NA-67] | – | – | > 10 | > 10
25 | COc1ccc(-c2nc3cc(C(C)C)ccc3o2)cc1NC(=O)c1cccc([N+](=O)[O-])c1C [ND-15] | > 25 | > 25 | – | –
26 | O=C(Nc1ccc(N2CCN(C(=O)c3ccncc3)CC2)cc1)c1ccc(OCc2ccccc2)cc1 [NA-37] | – | – | > 25 | > 25
27 | COc1ccc(C(=O)Nc2ccc(OC)cc2OC)cc1 [ND-78] | > 25 | > 25 | – | –
28 | O=C(NCCC(=O)N1CCN(C(=O)c2cccs2)CC1)c1ccc(OCc2ccccc2)cc1 [NA-54] | – | – | > 25 | > 25
29 | Cc1ccc(C(=O)Nc2cc(C(C)C)ccc2O)cc1[N+](=O)[O-] [ND-55] | > 25 | > 25 | – | –
